Structures are written as SMILES.

This test deals with T1, recombinant autotaxin (Homo sapiens, UniProt Q13822).
T1 construct: made in house; host or cells: Hi5 insect cells (baculovirus)
Description: Autotaxin test (enzyme test), Amplex Red fluorescence. The format is biochemical. The following applies: substrate LPC 75 μM, Amplex Red detection, read-out: IC50 (autotaxin inhibition, enzyme test). As for the experimental part:
Autotaxin Inhibition (Enzyme Test)
Autotaxin Test (Enzyme Test)
The autotaxin activity is measured indirectly using Amplex Red reagent. Amplex Red is measured here as fluorogenic indicator for the H2O2 formed. In detail, autotaxin converts the substrate lysophosphatidylcholine (LPC) into phosphocholine and lysophosphatidylic acid (LPA). After this reaction, the phosphocholine is reacted with alkaline phosphatase to give inorganic phosphate and choline. In the next step, choline is oxidised by choline oxidase to give betaine, with formation of H2O2. H2O2 reacts with Amplex Red reagent in the presence of peroxidase (horseradish peroxidase) in a 1:1 stoichiometry and forms the highly fluorescent resorufin. The fluorescence is measured in a reaction-dependent kinetic mode in order that fluorescent signals from possible other fluorescent substances which are not involved in the reaction can be corrected out.
1.5 μl of a standard solution or of the test substances (substances with the name A(n)) in individual concentrations dissolved in 20 mM Hepes pH 7.2 with a maximum of 7.7% of DMSO are pre-incubated together with 10 μl (16 ng) of highly purified recombinant autotaxin in a black microtitre plate provided with 384 wells at 22° C. for 30 min. The reaction is then initiated by addition of 5 μl of L-α-lysophosphatidylcholine (LPC), where the final concentration of LPC is 75 μM. The mixture is incubated at 37° C. for 90 min. After the incubation, Amplex Red reagent, peroxidase (horseradish peroxidase) and choline oxidase is added, and the fluorescence is immediately measured at 612 nm with excitation of 485 nm in a “Tecan Ultra multimode” reader. The activity of autotaxin is calculated indirectly via detection of the H2O2 formed. • Material: • Microtitre plate: PS microplate, 384 wells, small volume, black Corning, Cat #3677 • Protein: recombinant autotaxin (Baculovirale Hi5 Expression) • Substrate: L-α-lysophosphatidylcholine (chicken egg)); Avanti Polar Lipids #830071 P • Standard: C14 LPA, Avanti Polar Lipids, Cat #857120P • Detection reagent: Amplex Red reagent; Invitrogen #A12222; dissolved in 1.923 ml of DMSO peroxidase type VI-A (horseradish) from Sigma #P6782; dissolved in 7.45 ml of test buffer, choline oxidase; Sigma #C5896; dissolved in 2.47 ml of test buffer • Detection reagent mix: 1:100 dilution of Amplex Red reagent in test buffer • Test buffer: 200 mM Tris HCl, Merck, Cat #1.08219, pH 7.9, 0.1% of BSA, lipid-free, Roche Cat #775835
For `CCCCc1ccc(NC(=O)Nc2[nH]c(Cc3ccc(C(=O)N4CCC(CCO)CC4)o3)nc2C(N)=O)cc1` [Compound A91, 5-[3-(4-Butylphenyl)ureido]-2-{5-[4-(2-hydroxy-ethyl)piperidine-1-carbonyl]furan-2-ylmethyl}-1H-imidazole-4-carboxamide], the IC50 is 1 to 10 µM.

Regarding `NC(=O)c1nc(Cc2ccc(OCC(=O)O)cc2)[nH]c1NC(=O)Nc1ccc(Cl)cc1` [Compound A41, (4-{4-Carbamoyl-5-[3-(4-chlorophenyl)ureido]-1H-imidazol-2-ylmethyl}phenoxy)acetic acid], the IC50 fell in the range of 1 to 10 µM.

In the case of `Cc1c(Cl)cccc1NC(=O)Nc1[nH]c(Cc2ccc(C(=O)O)o2)nc1C(N)=O` [Compound A13, 5-{4-Carbamoyl-5-[3-(3-chloro-2-methylphenyl)-ureido]-1H-imidazol-2-ylmethyl}furan-2-carboxylic acid], the IC50 is greater than 10 µM.

Turning to `NC(=O)c1nc(Cc2ccc(OCC(=O)O)cc2)[nH]c1NC(=O)Nc1cccc(C(F)(F)F)c1` [Compound A37, (4-{4-Carbamoyl-5-[3-(3-trifluoromethylphenyl)-ureido]-1H-imidazol-2-ylmethyl}phenoxy)acetic acid], the IC50 is greater than 10 µM.

As for `Cc1cccc(C)c1NC(=O)Nc1[nH]c(-c2ccc(OCC(=O)O)cc2)nc1C(N)=O` [Compound A48, (4-{4-Carbamoyl-5-[3-(2,6-dimethylphenyl)-ureido]-1H-imidazol-2-yl}phenoxy)acetic acid], the IC50 was greater than 10 µM.

As to `COC(=O)c1ccc(Cc2nc(C(N)=O)c(NC(=O)Nc3ccc(OC(F)(F)F)cc3)[nH]2)cc1` [Compound A99, Methyl 4-{4-carbamoyl-5-[3-(4-trifluoromethoxy-phenyl)ureido]-1H-imidazol-2-ylmethyl}benzoate], the IC50 is greater than 10 µM.

Regarding `NC(=O)c1nc(-c2ccc(OCC(=O)O)cc2)[nH]c1NC(=O)Nc1cccc(C(F)(F)F)c1` [Compound A49, (4-{4-Carbamoyl-5-[3-(3-trifluoromethylphenyl)-ureido]-1H-imidazol-2-yl}phenoxy)acetic acid], the IC50 was in the range of 1 to 10 µM.

In the case of `CCCCc1ccc(NC(=O)Nc2[nH]c(Cc3ccc(C(=O)N4CCC(C)CC4)o3)nc2C(N)=O)cc1` [Compound A87, 5-[3-(4-Butylphenyl)ureido]-2-[5-(4-methyl-piperidine-1-carbonyl)furan-2-ylmethyl]-1H-imidazole-4-carboxamide], the IC50 is greater than 10 µM.

As for `NC(=O)c1nc(Cc2ccc(N)cc2)[nH]c1NC(=O)Nc1ccc(C(F)(F)F)cc1` [Compound A97, 2-(4-aminobenzyl)-5-[3-(4-trifluoromethylphenyl)-ureido]-1H-imidazole-4-carboxamide], the IC50 was 1 to 10 µM.

Consider `CCCCc1ccc(NC(=O)Nc2[nH]c(Cc3ccc(C(=O)N(CCCC)CCCC)o3)nc2C(N)=O)cc1` [Compound A80, 5-[3-(4-Butylphenyl)ureido]-2-(5-dibutyl-carbamoylfuran-2-ylmethyl)-1H-imidazole-4-carboxamide], for which the IC50 is greater than 10 µM.

As to `NC(=O)c1nc(Cc2ccc(C(=O)O)o2)[nH]c1NC(=O)Nc1ccc2ccccc2c1` [Compound A33, 5-[4-Carbamoyl-5-(3-naphthalen-2-ylureido)-1H-imidazol-2-ylmethyl]furan-2-carboxylic acid], the IC50 is greater than 10 µM.

Consider `Cc1ccc(NC(=O)Nc2[nH]c(Cc3ccc(OCC(=O)O)cc3)nc2C(N)=O)cc1` [Compound A40, {4-[4-Carbamoyl-5-(3-p-tolylureido)-1H-imidazol 2-ylmethyl]phenoxy}acetic acid], for which the IC50 fell in the range of 1 to 10 µM.

Turning to `NC(=O)c1nc(-c2ccc(OCC(=O)O)cc2)[nH]c1NC(=O)Nc1ccccc1Cl` [Compound A47, (4-{4-Carbamoyl-5-[3-(2-chlorophenyl)ureido]-1H-imidazol-2-yl}phenoxy)acetic acid], the IC50 was greater than 10 µM.

Regarding `Cc1cccc(C)c1NC(=O)Nc1[nH]c(Cc2ccc(C(=O)O)o2)nc1C(N)=O` [Compound A26, 5-{4-Carbamoyl-5-[3-(2,6-dimethylphenyl)-ureido]-1H-imidazol-2-ylmethyl}furan-2-carboxylic acid], the IC50 is greater than 10 µM.

As to `NC(=O)c1nc(Cc2ccc(C(=O)O)s2)[nH]c1NC(=O)Nc1cccc(C(F)(F)F)c1` [Compound A65, 5-{4-Carbamoyl-5-[3-(3-trifluoromethylphenyl)-ureido]-1H-imidazol-2-ylmethyl}thiophene-2-carboxylic acid], the IC50 is greater than 10 µM.

Regarding `NC(=O)c1nc(-c2ccc(OCC(=O)O)cc2)[nH]c1NC(=O)Nc1ccc(F)cc1` [Compound A46, (4-{4-Carbamoyl-5-[3-(4-fluorophenyl)ureido]-1H-imidazol-2-yl}phenoxy)acetic acid], the IC50 is greater than 10 µM.

Consider `CCCCc1ccc(NC(=O)Nc2[nH]c(Cc3ccc(C(=O)N(C)CCC)o3)nc2C(N)=O)cc1` [Compound A90, 5-[3-(4-Butylphenyl)ureido]-2-[5-(methylpropyl-carbamoyl)furan-2-ylmethyl]-1H-imidazole-4-carboxamide], for which the IC50 is greater than 10 µM.

Regarding `CC(C)c1ccc(NC(=O)Nc2[nH]c(-c3ccc(CC(=O)O)cc3)nc2C(N)=O)cc1` [Compound A23, (4-{4-Carbamoyl-5-[3-(4-isopropylphenyl)ureido]-1H-imidazol-2-yl}phenyl)acetic acid], the IC50 is greater than 10 µM.

In the case of `NC(=O)c1nc(Cc2ccc(C(=O)O)s2)[nH]c1NC(=O)Nc1ccc(F)c(C(F)(F)F)c1` [Compound A75, 5-{4-Carbamoyl-5-[3-(4-fluoro-3-trifluoromethyl-phenyl)ureido]-1H-imidazol-2-ylmethyl}-thiophene-2-carboxylic acid], the IC50 was greater than 10 µM.

On to `Cc1cc(Cl)ccc1NC(=O)Nc1[nH]c(Cc2ccc(C(=O)O)s2)nc1C(N)=O` [Compound A74, 5-{4-Carbamoyl-5-[3-(4-chloro-2-methylphenyl)-ureido]-1H-imidazol-2-ylmethyl}thiophene-2-carboxylic acid], for which the IC50 lay within 1 to 10 µM.

As for `NC(=O)c1nc(-c2ccc(C(=O)O)cc2)[nH]c1NC(=O)Nc1ccc(C(F)(F)F)cc1` [Compound A18, 4-{4-Carbamoyl-5-[3-(4-trifluoromethylphenyl)-ureido]-1H-imidazol-2-yl}benzoic acid], the IC50 was greater than 10 µM.

Regarding `NC(=O)c1nc(-c2ccc(OCC(=O)O)cc2)[nH]c1NC(=O)Nc1cc(C(F)(F)F)ccc1F` [Compound A55, (4-{4-Carbamoyl-5-[3-(2-fluoro-5-trifluoromethyl-phenyl)ureido]-1H-imidazol-2-yl}phenoxy)acetic acid], the IC50 lay within 1 to 10 µM.

With `Cc1cc(NC(=O)Nc2[nH]c(Cc3ccc(C(=O)O)s3)nc2C(N)=O)ccc1F` [Compound A73, 5-{4-Carbamoyl-5-[3-(4-fluoro-3-methylphenyl)-ureido]-1H-imidazol-2-ylmethyl}thiophene-2-carboxylic acid], the IC50 is greater than 10 µM.

Take `CCCCOc1ccc(NC(=O)Nc2[nH]c(Cc3ccc(CO)cc3)nc2C(N)=O)cc1` [Compound A100, 5-[3-(4-butoxyphenyl)ureido]-2-(4-hydroxy-methylbenzyl)-1H-imidazole-4-carboxamide]: the IC50 was greater than 10 µM.

Turning to `NC(=O)c1nc(Cc2ccc(C(=O)O)cc2)[nH]c1NC(=O)Nc1ccc(OC(F)(F)F)cc1` [Compound A93, 4-{4-Carbamoyl-5-[3-(4-trifluoromethoxyphenyl)-ureido]-1H-imidazol-2-ylmethyl}benzoic acid], the IC50 lay in the range of 1 to 10 µM.

In the case of `CCCCc1ccc(NC(=O)Nc2[nH]c(Cc3ccc(OCC(=O)O)cc3)nc2C(N)=O)cc1` [Compound A39, (4-{5-[3-(4-Butylphenyl)ureido]-4-carbamoyl-1H-imidazol-2-ylmethyl}phenoxy)acetic acid], the IC50 fell in the range of 1 to 10 µM.

Take `NC(=O)c1nc(Cc2ccc(C(=O)O)cc2)[nH]c1NC(=O)Nc1ccc(C(F)(F)F)cc1` [Compound A15, 4-{4-Carbamoyl-5-[3-(4-tritluoromethylphenyl)-ureido]-1H-imidazol-2-ylmethyl}benzoic acid]: the IC50 was in the range of 1 to 10 µM.

For `NC(=O)c1nc(CCC(=O)Nc2ccc3[nH]c(=O)oc3c2)[nH]c1NC(=O)Nc1ccc(Cl)cc1` [Compound B79], the concentration for half-maximal inhibition (IC50) is greater than 10 µM.

As to `NC(=O)c1nc(Cc2ccc(C(=O)O)cc2)[nH]c1NC(=O)Nc1cccs1` [Compound A102, 4-[4-Carbamoyl-5-(3-thiophen-2-ylureido)-1H-imidazol-2-ylmethyl]benzoic acid], the IC50 lay in the range of 1 to 10 µM.

Consider `NC(=O)c1nc(CCC(=O)Nc2ccc3[nH]nnc3c2)[nH]c1NC(=O)Nc1ccc(Cl)cc1` [Compound B80], for which the IC50 was greater than 10 µM.

What is called IC50 is the concentration needed to halve the response being measured.
